Source: ChEMBL document CHEMBL2057195, “Design and synthesis of a novel pyrrolidinyl pyrido pyrimidinone derivative as a potent inhibitor of PI3Kα and mTOR” (Bioorg Med Chem Lett, 2012)
pKi: −log10 of the molar value. In brackets after ≈: the same amount, converted by molar mass.

Legend:
[1] = Clearance in rat liver microsomes; type: ADME, Microsome; settings: read-out: CLH
[2] = target: Phosphatidylinositol 4,5-bisphosphate 3-kinase catalytic subunit alpha isoform (Mus musculus, UniProt P42337)
Description: Inhibition of mouse PI3Kalpha

[3] = target: Serine/threonine-protein kinase mTOR (Homo sapiens, UniProt P42345)
physchem = settings: buffer, pH 6.5
Description: Apparent kinetic solubility of the compound at pH 6.5

Liver microsomes [4] = assay: Drug metabolism in human liver microsomes assessed as CYP450-mediated GSH adduct formation in presence of GSH; type: ADME, Microsome
Liver microsomes [5] = assay: Drug metabolism in human liver microsomes assessed as CYP450-mediated 4-(2-amino-4-methyl-7-oxo-6-(1H-pyrazol-4-yl)pyrido[2,3-d]pyrimidin-8(7H)-ylamino)butanoic acid formation; type: ADME, Microsome
Liver microsomes [6] = assay: Drug metabolism in human liver microsomes assessed as CYP450-mediated GSH adduct formation in absence of GSH; type: ADME, Microsome
[7] = Oral bioavailability in rat at 5 mg/kg; type: ADME, organism-based; settings: in vivo
[8] = Cmax in rat at 5 mg/kg, po; type: ADME, organism-based; design: dose 5 mg/kg, route oral; settings: in vivo
[9] = Half life in rat at 2 mg/kg, iv; type: ADME, organism-based; design: dose 2 mg/kg, route intravenous; settings: in vivo
[10] = Clearance in rat at 2 mg/kg, iv; type: ADME, organism-based; design: dose 2 mg/kg, route intravenous; settings: in vivo
[11] = Volume of distribution at steady state in rat at 2 mg/kg, iv; type: ADME, organism-based; design: dose 2 mg/kg, route intravenous; settings: in vivo, read-out: Vdss

Sequence of Phosphatidylinositol 4,5-bisphosphate 3-kinase catalytic subunit alpha isoform (P42337 whole entry, canonical isoform): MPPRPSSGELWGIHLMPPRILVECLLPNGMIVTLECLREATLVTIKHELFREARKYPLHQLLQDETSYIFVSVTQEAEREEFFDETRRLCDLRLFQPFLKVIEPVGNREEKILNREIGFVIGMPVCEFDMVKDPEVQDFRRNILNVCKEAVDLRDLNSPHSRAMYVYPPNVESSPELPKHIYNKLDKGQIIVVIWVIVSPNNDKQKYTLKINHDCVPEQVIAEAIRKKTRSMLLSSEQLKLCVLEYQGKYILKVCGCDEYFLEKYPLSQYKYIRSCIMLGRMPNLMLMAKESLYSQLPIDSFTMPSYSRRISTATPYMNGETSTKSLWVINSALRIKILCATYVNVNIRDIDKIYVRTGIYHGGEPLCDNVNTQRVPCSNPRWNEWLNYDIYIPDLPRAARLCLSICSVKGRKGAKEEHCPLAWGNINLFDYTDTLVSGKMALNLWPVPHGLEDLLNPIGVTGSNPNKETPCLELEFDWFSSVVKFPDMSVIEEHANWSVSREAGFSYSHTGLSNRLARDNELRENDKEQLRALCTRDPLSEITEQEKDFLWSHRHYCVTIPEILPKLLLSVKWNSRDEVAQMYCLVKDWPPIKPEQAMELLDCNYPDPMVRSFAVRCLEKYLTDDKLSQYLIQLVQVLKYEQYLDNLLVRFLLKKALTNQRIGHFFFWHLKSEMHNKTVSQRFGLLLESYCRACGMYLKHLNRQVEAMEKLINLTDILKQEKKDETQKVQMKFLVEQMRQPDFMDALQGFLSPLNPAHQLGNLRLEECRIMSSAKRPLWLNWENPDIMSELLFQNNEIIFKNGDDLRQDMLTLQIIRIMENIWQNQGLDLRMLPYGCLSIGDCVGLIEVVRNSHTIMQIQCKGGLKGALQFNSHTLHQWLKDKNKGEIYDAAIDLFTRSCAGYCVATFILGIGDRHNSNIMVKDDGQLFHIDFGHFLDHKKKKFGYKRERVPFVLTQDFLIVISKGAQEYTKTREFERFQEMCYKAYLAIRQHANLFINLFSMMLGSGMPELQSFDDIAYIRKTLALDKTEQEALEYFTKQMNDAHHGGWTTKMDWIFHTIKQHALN

SMILES | pKi [2] | pKi [3] | solubility kinetic (physchem) [µM] | also measured
CCN(CC)n1c(=O)c(-c2cn[nH]c2)cc2c(C)nc(N)nc21 | 6.86 | – | 434 (≈ 136 µg/mL) | –
COc1ccc(-c2cc3c(C)nc(N)nc3n(C3CCC3)c2=O)cn1 | – | 7.12 | 11.1 (≈ 3.74 µg/mL) | –
COc1ccc(-c2cc3c(C)nc(N)nc3n(C3CC3)c2=O)cn1 | 7.59 | – | 16.2 (≈ 5.24 µg/mL) | –
Cc1nc(N)nc2c1cc(-c1cn[nH]c1)c(=O)n2NCC(C)C | 6.08 | – | – | –
Cc1nc(N)nc2c1cc(-c1cn[nH]c1)c(=O)n2C1CC1 | 7.44 | 6.72 | 16.7 (≈ 4.71 µg/mL) | –

More lines, in order of rising pKi [2], values ahead:

pKi [2] | pKi [3] | solubility kinetic (physchem) [µM] | SMILES | also measured
7.87 | 7.63 | 43.4 (≈ 12.3 µg/mL) | Cc1nc(N)nc2c1cc(-c1cn[nH]c1)c(=O)n2C(C)C | microsomal CLint [1]: 349 µL/min/mg
7.90 | 7.97 | 43.1 (≈ 13.4 µg/mL) | Cc1nc(N)nc2c1cc(-c1cn[nH]c1)c(=O)n2N1CCCC1 | Drug metabolism (Liver microsomes [4]): Not Active; Drug metabolism (Liver microsomes [5]): Active; Drug metabolism (Liver microsomes [6]): Not Active; bioavailability [7]: 52%; Cmax [8]: 0.144 ng/mL; half-life [9]: 54 min; clearance [10]: 36.3 mL/min/kg; Vd [11]: 2.9 L/kg
8.00 | – | – | COc1ccc(-c2cc3c(C)nc(N)nc3n(N3CCCC3)c2=O)cn1 | –
8.15 | 7.29 | 13 (≈ 3.85 µg/mL) | Cc1nc(N)nc2c1cc(-c1cn[nH]c1)c(=O)n2C1CCC1 | –
8.81 | 6.85 | 3.94 (≈ 1.38 µg/mL) | COc1ccc(-c2cc3c(C)nc(N)nc3n(C3CCCC3)c2=O)cn1 | –
